For series [1], the target named is Adenosine kinase (Mycobacterium tuberculosis (strain ATCC 25618 / H37Rv)) (UniProt P9WID5). The experiment in a line: Inhibition of wild-type N-terminal TEV cleavage site-fused/His-tagged Mycobacterium tuberculosis H37Rv adenosine kinase expressed in Escherichia coli BL21 (DE3) at 12.5 uM using adenosine as substrate in presence of ATP and PEP by pyruvate kinase-lactate dehydrogenase coupled UV-vis spectrophotometric method relative to control.

Series [2] can be described thus: Toxicity in ND4 Swiss Webster mouse at 10 mg/kg, po administered as single dose via gavage. Type of series: organism-based. Particulars: in vivo.
Series [3] is described as follows: Toxicity in ND4 Swiss Webster mouse at 50 to 200 mg/kg, po administered once daily via gavage for 3 days measured twice daily during compound dosing. In kind it is organism-based. Particulars: in vivo, 72 h.
Series [4] can be described thus: Toxicity in ND4 Swiss Webster mouse assessed as change in body weight at 50 to 200 mg/kg, po administered once daily via gavage for 3 days measured twice daily during compound dosing. Type of series: organism-based. Particulars: in vivo, 72 h.
Series [5] has as its target Adenosine kinase (Mycobacterium tuberculosis (strain ATCC 25618 / H37Rv)) (UniProt P9WID5). Briefly: Competitive-inhibition of wild-type N-terminal TEV cleavage site-fused/His-tagged Mycobacterium tuberculosis H37Rv adenosine kinase expressed in Escherichia coli BL21 (DE3) using varying levels of adenosine as substrate in presence of ATP and PEP by pyruvate kinase-lactate dehydrogenase-coupled UV-vis spectrophotometric based Cheng-Prusoff equation analysis.

The source made the active and inactive calls. The calls are words filed in the database; no cut-off is given here.

Chain of Adenosine kinase (Mycobacterium tuberculosis (strain ATCC 25618 / H37Rv)) (P9WID5 2-324 limits assumed): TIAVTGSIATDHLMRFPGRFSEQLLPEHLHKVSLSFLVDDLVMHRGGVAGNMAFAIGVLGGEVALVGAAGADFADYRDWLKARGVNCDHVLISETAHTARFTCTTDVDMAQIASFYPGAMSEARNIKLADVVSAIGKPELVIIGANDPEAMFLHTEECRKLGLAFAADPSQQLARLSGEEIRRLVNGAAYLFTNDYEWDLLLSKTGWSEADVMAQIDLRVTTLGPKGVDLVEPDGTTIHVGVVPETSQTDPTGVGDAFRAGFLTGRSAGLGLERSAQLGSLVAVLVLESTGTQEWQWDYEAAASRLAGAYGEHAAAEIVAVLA

On to `Cc1ccc(S(=O)(=O)NC[C@H]2O[C@@H](n3cnc4c(N5CCN(c6ccc(C(F)(F)F)cc6)CC5)ncnc43)[C@H](O)[C@@H]2O)cc1`, for which the inhibition in series [1] came to 53%.

Consider `OC[C@H]1O[C@@H](n2cnc3c(N4CCN(c5ccc(-c6ccccc6)cc5)CC4)ncnc32)[C@H](O)[C@@H]1O`, for which the Activity result in series [2], in series [3] and in series [4] was “Non-Toxic” throughout. Further, the inhibition entry in series [5] is “Active”.
